This note sets out measurements from patent US5493007A, “Platelet aggregation inhibitors having high specificity for GPIIBIIIA” (Genentech, Inc., priority 1994, dated 1996).

In series [1] the test system is New Zealand White rabbits. Kind of series: Rabbit cutaneous bleeding time (CBT). The conditions noted are these: for Rabbit BT Ratio: Example 1, at the % P.A. inhibition given.
Protocol: Unanesthetized male New Zealand White rabbits (2.5-3.5 kg) are placed in a standard rabbit restrainer. Ears are shaved and a 20 G Teflon catheter with flowswitch (Viggo) is placed in the medial artery, flushed with saline and locked with 1 ml of heparinized saline (10 m/ml). A 22 G catheter (Abbott) fitted with an injection cap (Medex) is placed in the marginal vein of the same ear. Saline or a GP IIb IIIa receptor antagonist, at a concentration of 1 to 3 mg/ml, is infused via the venous catheter. At time 0, 41% of the dose is given as a bolus over 2 minutes. The remainder is continuously infused over the following 60 minutes. Blood samples (3.2 ml) are collected into syringes without needles via the arterial catheter at -10, -5, 10, 45, and 60 minutes. The first 0.5 ml is discarded and the following 2.7 ml is collected directly into a syringe containing 0.3 ml of 3.8% sodium citrate. The sample is divided into 1.5 ml aliquots and centrifuged at room temperature for 5 seconds at 12,000 G. The resulting platelet rich plasma (PRP) is used to measure ex-vivo platelet aggregation (XPA). At -10 and 60 minutes an additional 1 cml sample is drawn for an automated blood count (Baker instruments). Catheters are flushed and locked after every sample.
CBT is measured at -10, -5, 10, and 45 minutes on the opposite ear, using an automated incision-making instrument (Surgicutt®, ITD). An incision (5mm×1 mm deep) is made on the dorsal surface of the ear at sites not supplied by major blood vessels. Blood is blotted away with absorbent paper placed near the incision site, every 2 to 15 seconds, to a maximum of 15 minutes. Cessation of bleeding is defined as no blood forming at the incision site for 15 seconds. The range of duplicate CBT in 40 normal rabbits was 0.88 to 3.38 minutes.
In series [2] the target is T1, GP IIb IIIa (Homo sapiens, UniProt P05106+P08514). Nature of the series: Fibrinogen-GP IIb IIIa Receptor ELISA Binding Assay. Set-up: from tissue; host or cells: outdated human platelets. Conditions: purified human platelet GP IIb IIIa, fibrinogen-coated plates; read-out: ELISA IC50 Fibrinogen GPIIb IIIa. On the procedure: The method used is essentially that described in Nachman and Leung (J. Clin. Invest., 69:263-269 [1982]). The GP IIb IIIa is essentially purified as described in Fitzgerald et al., (Anal. Biochem. 151:169-177 [1985]).
T1 sequence (P08514 32-887 limits assumed): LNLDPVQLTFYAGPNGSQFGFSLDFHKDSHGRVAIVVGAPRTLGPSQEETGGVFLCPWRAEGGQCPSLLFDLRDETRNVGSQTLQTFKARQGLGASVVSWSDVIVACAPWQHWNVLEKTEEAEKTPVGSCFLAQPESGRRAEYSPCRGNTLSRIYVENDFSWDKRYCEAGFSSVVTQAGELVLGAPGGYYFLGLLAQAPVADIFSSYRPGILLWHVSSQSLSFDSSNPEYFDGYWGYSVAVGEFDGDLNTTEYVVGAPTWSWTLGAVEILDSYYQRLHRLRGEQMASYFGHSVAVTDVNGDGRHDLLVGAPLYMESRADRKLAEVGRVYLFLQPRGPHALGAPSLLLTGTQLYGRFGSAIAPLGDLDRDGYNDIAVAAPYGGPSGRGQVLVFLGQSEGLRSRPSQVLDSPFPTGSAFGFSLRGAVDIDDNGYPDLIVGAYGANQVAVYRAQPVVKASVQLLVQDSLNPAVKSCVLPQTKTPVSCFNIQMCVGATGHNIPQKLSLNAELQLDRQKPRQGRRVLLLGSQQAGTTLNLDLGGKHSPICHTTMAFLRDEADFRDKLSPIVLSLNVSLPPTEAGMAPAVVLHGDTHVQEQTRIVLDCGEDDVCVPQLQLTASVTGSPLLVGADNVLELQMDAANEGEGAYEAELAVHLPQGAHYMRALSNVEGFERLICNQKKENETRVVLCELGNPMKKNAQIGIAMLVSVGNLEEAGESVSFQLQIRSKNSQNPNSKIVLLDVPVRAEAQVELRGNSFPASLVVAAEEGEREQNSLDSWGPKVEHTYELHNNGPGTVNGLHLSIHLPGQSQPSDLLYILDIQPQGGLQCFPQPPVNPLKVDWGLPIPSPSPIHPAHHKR
T1 sequence (P08514 891-1039 partner limits assumed): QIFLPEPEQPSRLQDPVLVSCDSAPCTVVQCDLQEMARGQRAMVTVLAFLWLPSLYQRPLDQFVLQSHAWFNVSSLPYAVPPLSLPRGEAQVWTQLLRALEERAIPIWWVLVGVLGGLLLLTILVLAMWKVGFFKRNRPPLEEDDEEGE
T1 sequence (P05106 27-788): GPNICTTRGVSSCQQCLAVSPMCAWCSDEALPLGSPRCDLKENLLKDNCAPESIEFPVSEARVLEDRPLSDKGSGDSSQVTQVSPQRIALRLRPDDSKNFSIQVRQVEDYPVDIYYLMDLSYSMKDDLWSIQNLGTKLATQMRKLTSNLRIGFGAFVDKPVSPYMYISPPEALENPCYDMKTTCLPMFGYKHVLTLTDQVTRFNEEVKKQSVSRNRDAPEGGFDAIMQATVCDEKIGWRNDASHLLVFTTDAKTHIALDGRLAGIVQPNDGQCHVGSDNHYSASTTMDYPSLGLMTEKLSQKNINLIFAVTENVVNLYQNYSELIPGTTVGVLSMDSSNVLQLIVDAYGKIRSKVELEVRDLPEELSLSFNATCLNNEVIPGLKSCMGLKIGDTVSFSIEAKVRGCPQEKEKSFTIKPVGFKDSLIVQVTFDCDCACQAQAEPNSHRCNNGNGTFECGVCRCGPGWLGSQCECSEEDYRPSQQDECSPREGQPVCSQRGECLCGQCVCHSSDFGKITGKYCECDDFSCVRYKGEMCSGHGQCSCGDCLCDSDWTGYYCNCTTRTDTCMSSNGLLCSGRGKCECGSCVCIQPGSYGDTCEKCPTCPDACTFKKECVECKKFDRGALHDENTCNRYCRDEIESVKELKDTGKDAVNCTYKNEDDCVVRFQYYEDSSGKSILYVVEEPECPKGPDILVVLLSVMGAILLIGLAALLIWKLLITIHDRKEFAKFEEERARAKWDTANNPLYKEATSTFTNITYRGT
Outdated human platelets are washed 3 times with 10 mM tris-HCl, 150 mM NaCl (TBS), 1 mM EDTA, pH 7.5, and centrifuged at 2000×g to pellet cells. Cells are lysed in 5 pellet volumes of TBS, 1% Triton X-100, 1 mM Ca2 Cl2, and followed by centrifugation at 30,000×g. The supernatant fraction is collected and the supernatant is loaded onto a concanavalin-A column, previously equilibrated in TBS, 1 mM Ca2 Cl2, 0.1% Triton, 0.05% NaN3 and eluted with 0.2M α-methylmannoside. Fractions are pooled and loaded onto a heparin-agarose column. The flowthrough is collected and concentration on an Amicon YM 30 filter to a volume of approximately 5-10 mi. The concentrate is then applied to an S-300 column (500 ml) and 6 ml fractions are collected. The GP IIb IlIa containing fractions are collected, pooled, and stored at -80° C.
The purification of fibrinogen is conducted essentially as described by Lipinska et al., (J. Lab. Clin. Med. 507, [1974]). Briefly, a 0.3% w/v solution of human fibrinogen (Kabi #5302) is dissolved in 150 mM NaCl. Saturated (NH4)2 SO4 is added dropwise with stirring to the fibrinogen solution to obtain about 16% saturation. The precipitate is spun down in appropriate size bottles at 2000×g. The supernatant is decanted and the precipitate resuspended in 150 mM NaCl (approximately 50% of the original volume). NH4 SO4 is again added dropwise to obtain 16% saturation. The suspension is spun down and the precipitate is resuspended in Tris-saline in a minimal volume (approximately 5% of the original volume). Any remaining insoluble material is spun down at 2000 rpm in a Sorval type centrifuge and the fibrinogen supernatant is decanted and dialyzed overnight at 4° C. against Tris-saline. Characterization of the fibrinogen is by the Bradford protein assay, SDS-PAGE, and/or Western blotting using well known standard procedures.
Briefly, 96 well plates are coated (Type Nunc 1 Maxisorp™) with 10 μg/ml purified fibrinogen (100 μl/well), and allowed to stand overnight at 4° C. The plates are washed three times with PBS Tween (0.137M NaCl, 0.003M KCl, 0.008M Na2 HPO4, 0.001M KH2 PO4, pH 7.4 at room temperature, 0.05% Tween-20) and blocked for 1 to 2 hours at room temperature with 200 μl/well TNCNT (which is 0.5% BSA, 20mM Tris, pH 7.5 at room temperature, 120 mM NaCl, 0.2% NAN3, 2mM CaCl2, 0.05% Tween 20, 0.5% BSA [Calbiochem RIA grade or better]) on a plate shaker. The plates are again washed three times with PBS/Tween and then 50 μl of sample in TNCNT is added. The mixture is incubated for 15 minutes at room temperature on a plate shaker. The stock solution of purified GP IIb IIIa receptor from human platelets, (0.4-1.0 mg/ml GP IIb IIIa in 0.1% Triton X-100, 1 mM CaCl2, 20 mM Tris, 150 mM NaCl, 0.05% NaN3 in 0.3M N-acetyl glucosamine pH 7.5, stored at -70° C.), is reconstituted to about 40 μg/ml in TNCNT. Fifty μl of this diluted GP IIb IIIa is then added to each well and incubated on a plate shaker at room temperature. After one hour, the plates are washed four times with PBS/Tween and 100 μl of a polyclonal or monoclonal antibody specific for GP IIIa such as AP3 (1 μg/ml) (See e.g. Newman et al., Blood, 65:227-232 [1985]) in ELISA buffer (PBS, 0.5% BSA, 0.05% Tween 20, 0.01% Thimerasol) is added. After a one hour incubation at room temperature on a plate shaker, the samples are washed 4 times with PBS/Tween. One hundred μl of GAM-HRP (horse radish peroxidase conjugate of goat anti-mouse IgG [Pel-Freeze Cat. 715305-1] dissolved in ELISA buffer) previously diluted to 1:10,000 is then added and the samples are incubated 1 hour at room temperature on a plate shaker. […]

Series [3] concerns the target T1, GP IIb IIIa. Nature of the series: GP IIb IIIa -von Willebrand factor (vWF) ELISA Assay. Format: binding. Set-up: GP IIb IIIa, prepared by the method of Fitzgerald et al; from tissue. How it is done:
Microtiter plates are coated with 1.0 μg/ml GP IIb IIIa, prepared by the method of Fitzgerald et al., (Anal. Biochem. 151:169-177 [1985]) and allowed to incubate overnight in coat buffer. The plates are then washed three times in wash buffer (0.05% Tween 20 in PBS) and 150 μl of assay buffer is added and allowed to incubate for 1-2 hours at room temperature on plate shaker. The plates are washed three times and 50 μl of 2x inhibitor in assay buffer (Assay buffer: 0.5% BSA/50 mM Tris, 100 mM NaCl, 1.0 mM CaCl2, 1.0mM MgCl2, 1.0 mM MnCl2; coat buffer is the same but without BSA) is added. Fifty μl of 4.0 μg/ml vWF (prepared as described by Ledford et al., Thrombosis and Haemostasis, 64(4): 569-575 [1990]) in assay buffer is then added and allowed to incubate for one hour at room temperature on plate-shaker. The plates are washed three times and the antibody mixture is added (1:5000 of mouse anti-vWF and 1:5000 of rabbit-anti-mouse-Fc-HRP, both commercially available) in assay buffer and incubated for 1 hour at room temperature on plate-shaker. Plates are again washed three times and 100 μl of substrate solution (10 mg OPD, 6.5 μl H2 O2, 15 ml phosphate citrate buffer) is added and incubated at room temperature. The color change of OPD/H2 O2 reagent is read at 492 nm with a 405 nm reference wavelength on the filter photometer.

Setting [4] is: GP IIb IIIa-coated plates, vWF, read-out: ELISA IC50 GPIIb IIIa vWF.

Several values for one entry are separate records, joined by “and”; a condition that tells them apart may be missing. Identical values can stand only once. Where a SMILES comes first, the peptide text is derived from it. Bridges are numbered along the chain shown (N, C = ends). [ ]: non-standard residue; d: D form. Aad = N[C@@H](CCCC(=O)O)C(=O)O; Pen = CC(C)(S)[C@H](N)C(=O)O; dOrn = NCCC[C@@H](N)C(=O)O; Ava = NCCCCC(=O)O

In the case of `N=C(N)NCCC[C@H](NC(=O)[C@@H]1CSCC(=O)N[C@H](Cc2ccc(O)cc2)C(=O)N[C@@H](CCCNC(=N)N)C(=O)NCC(=O)N[C@@H](CC(=O)O)C(=O)N1)C(N)=O` [7/1, cyclo-S-acetyl-dTyr--Arg--Gly--Asp--Cys--Arg--NH2] ({CH2CO}-[dY]RGDCR-NH2; thioether N-5), the “increase in cutaneous bleeding time” value in series [1] (dosed to 100% inhibition of platelet aggregation) amounted to 1.17 times. Besides, in series [1], the “Rabbit BT Ratio” value was determined as 1.7. Besides, the IC50 on GP IIb IIIa [2] was found to be 10 nM; on GP IIb IIIa [3] (unit inferred, read-out: IC50 in the GPIIb IIIa -vWF ELISA), 13.8 nM.
Consider `N=C(N)NCCC[C@@H]1NC(=O)[C@@H](Cc2ccc(O)cc2)NC(=O)CSC[C@@H](C(=O)N[C@H](CCCCN)C(N)=O)NC(=O)[C@H](CC(=O)O)NC(=O)CNC1=O` [7/4, cyclo-S-acetyl-dTyr--Arg--Gly--Asp--Cys--dLys--NH2] ({CH2CO}-[dY]RGDC[dK]-NH2; thioether N-5), for which the IC50 at GP IIb IIIa [2] was determined as 8.3 nM; on GP IIb IIIa [3] (setting [4]), 1.56 nM.
In the same order, the values of `N=C(N)NCCC[C@@H]1NC(=O)[C@@H](Cc2ccc(O)cc2)NC(=O)CSC[C@@H](C(=O)N[C@H](CCCN)C(N)=O)NC(=O)[C@H](CC(=O)O)NC(=O)CNC1=O` [7/6, cyclo-S-acetyl-dTyr--Arg--Gly--Asp--Cys--dOrn--NH2] ({CH2CO}-[dY]RGDC[dOrn]-NH2; thioether N-5) are 10.5 nM and 1.92 nM.
As for `N=C(N)NCCC[C@@H]1NC(=O)[C@@H](Cc2ccc(O)cc2)NC(=O)CCC[C@@H](C(=O)N[C@@H](CCCCN)C(N)=O)NC(=O)[C@H](CC(=O)O)NC(=O)CNC1=O` [10/20, cyclo(1-5)dTyr--Arg--Gly--Asp--L-α-aminoadipic acid-Lys--NH2] ([dY]RGD[Aad]K-NH2; lactam N-5), the “Rabbit BT Ratio” value in series [1] is 2,0. In addition, the IC50 was 12.4 nM on GP IIb IIIa [2] and 2.74 nM on GP IIb IIIa [3] (setting [4]).
Take `N=C(N)NCCC[C@@H]1NC(=O)[C@@H](Cc2ccc(O)cc2)NC(=O)CSC[C@@H](C(=O)N[C@@H](CCC(N)=O)C(N)=O)NC(=O)[C@H](CC(=O)O)NC(=O)CNC1=O` [7/27, cyclo-S-acetyl-dTyr--Arg--Gly--Asp--Cys--Gln--NH2] ({CH2CO}-[dY]RGDCQ-NH2; thioether N-5): in series [1], the “cutaneous bleeding time, result in words” value was “did not increase cutaneous blood time”; the “Rabbit BT Ratio” value is 0.77 and 0.93. The IC50 at GP IIb IIIa [2] came to 3.1 nM.
In the case of `N=C(N)NCCC[C@@H]1NC(=O)[C@@H](Cc2ccc(O)cc2)NC(=O)C(CCCCN)SC[C@@H](C(=O)O)NC(=O)[C@H](CC(=O)O)NC(=O)CNC1=O` (single isomer, unassigned) [9/10, cyclo-S-2-L-(6-aminocaproyl)-Lys--dTyr--Arg--Gly--Asp--Cys--OH], the “Rabbit BT Ratio” value in series [1] worked out at 8.17. For the same compound, the IC50 was found to be 5.3 nM at GP IIb IIIa [2] and 0.785 nM on GP IIb IIIa [3] (setting [4]).
As for `CC1(C)SCC(=O)N[C@H](Cc2ccc(O)cc2)C(=O)N[C@@H](CCCCN)C(=O)NCC(=O)N[C@@H](CC(=O)O)C(=O)N[C@@H]1C(=O)N[C@@H](CCCNC(=N)N)C(N)=O` [7/16, cyclo-S-acetyl-dTyr--Lys--Gly--Asp--Pen--Arg--NH2] ({CH2CO}-[dY]KGD[Pen]R-NH2; thioether N-5), in series [1], the “cutaneous bleeding time, result in words” value is given as “without substantial increased cutaneous bleeding time”. In addition, the IC50 on GP IIb IIIa [2] worked out at 150 nM; at GP IIb IIIa [3] (setting [4]) it was 53.5 nM.
Consider `N=C(N)NCCC[C@@H]1NC(=O)[C@@H](Cc2ccc(O)cc2)NC(=O)C(CCCCN)SC[C@@H](C(=O)O)NC(=O)[C@H](CC(=O)O)NC(=O)CNC1=O` (single isomer, unassigned) [9/11, cyclo-S-2-L-(6-aminocaproyl)-Lys--dTyr--Arg--Gly--Asp--Cys--OH], for which the figures for the IC50 on GP IIb IIIa [2] and at GP IIb IIIa [3] (setting [4]) were 14.3 nM and 6.95 nM, respectively.
On to `N=C(N)NCCC[C@@H]1NC(=O)[C@@H](Cc2ccc(O)cc2)NC(=O)CSC[C@@H](C(=O)NCCCCC(=O)O)NC(=O)[C@H](CC(=O)O)NC(=O)CNC1=O` [7/28, cyclo-S-(1-5)-dTyr--Arg--Gly--Asp--Cys--X (X = aminovaleric acid)] ({CH2CO}-[dY]RGDC[Ava]-OH; thioether N-5), for which the IC50 at GP IIb IIIa [2] is 70 nM.
In the case of `N=C(N)NCCC[C@H](NC(=O)[C@@H]1CCCC(=O)N[C@H](Cc2ccc(O)cc2)C(=O)N[C@@H](CCCNC(=N)N)C(=O)NCC(=O)N[C@@H](CC(=O)O)C(=O)N1)C(N)=O` [10/19, cyclo(1-5)dTyr--Arg--Gly--Asp--L-α-aminoadipic acid-Arg--NH2] ([dY]RGD[Aad]R-NH2; lactam N-5), the concentration for half-maximal inhibition (IC50) on GP IIb IIIa [2] came out at 8.9 nM; at GP IIb IIIa [3] (setting [4]), 2.9 nM.
In the same order, the values of `N=C(N)NCCC[C@@H]1NC(=O)[C@@H](Cc2ccc(O)cc2)NC(=O)CSC[C@@H](C(=O)N[C@H](CCCNC(=N)N)C(N)=O)NC(=O)[C@H](CC(=O)O)NC(=O)CNC1=O` [7/2, cyclo-S-acetyl-dTyr--Arg--Gly--Asp--Cys--dArg--NH2] ({CH2CO}-[dY]RGDC[dR]-NH2; thioether N-5) are 13.5 nM and 2.93 nM.
On to `N=C(N)NCCC[C@H](NC(=O)[C@H](Cc1ccc(O)cc1)NC(=O)[C@@H]1CSCC(=O)N[C@H](Cc2ccc(O)cc2)C(=O)N[C@@H](CCCNC(=N)N)C(=O)NCC(=O)N[C@@H](CC(=O)O)C(=O)N1)C(N)=O` [7/7, cyclo-S-acetyl-dTyr--Arg--Gly--Asp--Cys--Tyr--Arg--NH2] ({CH2CO}-[dY]RGDCYR-NH2; thioether N-5), for which, in series [1], the “Rabbit BT Ratio” value is recorded as 4.10. Besides, the 50% inhibitory concentration (IC50) on GP IIb IIIa [2] came to 8.9 nM.
